Experimental data reported in patent US20240318196A1, “BRASSICA EVENT MON94100 AND METHODS OF USE THEREOF” (Monsanto Technology LLC, priority 2018, published 2024).

Assays:
[1] = tested on: Plants comprising Brassica Event MON94100; assay: Volunteer control: greenhouse plant injury rate after synthetic auxin herbicide spray; assay type: in vivo; conditions: for Plant Injury Rates (%) After Herbicide Spray, MON94100: sprayed at V3 stage, 9 days after treatment, greenhouse
Method: (§1) Plants comprising Brassica Event MON94100 and non-transgenic plants of the same germplasm as a control were grown in a greenhouse in a randomized complete block design. Plants were sprayed at V3 stage with one of four synthetic auxin herbicides: dicamba (as XtendiMax®), 2,4-D amine 4 (dimethylamine salt of 2,4-dichlorophenoxyacetic acid), bromoxynil (3,5-dibromo-4-hydroxybenzonitrile as Buctril®), and MCPA amine (4-chloro-2-methylphenoxy acetic acid) in a randomized pattern. Plant injury rate was taken at 9 days after treatment.

[2] = tested on: non-transgenic plants of the same germplasm; assay: as above; assay type: in vivo, Brassica; conditions: for Plant Injury Rates (%) After Herbicide Spray, Control: sprayed at V3 stage, 9 days after treatment, greenhouse
Method: as §1

Compound: Cc1cc(Cl)ccc1OCC(=O)O [MCPA, 4-chloro-2-methylphenoxy acetic acid]
- Plant Injury Rates (%) After Herbicide Spray, MON94100 ([1]; 1× rate): 73.0%
- Plant Injury Rates (%) After Herbicide Spray, MON94100 ([1]; 2× rate): 86.5%
- Plant Injury Rates (%) After Herbicide Spray, Control ([2]; 1× rate): 71.5%
- Plant Injury Rates (%) After Herbicide Spray, Control ([2]; 2× rate): 85.0%

Compound: COc1c(Cl)ccc(Cl)c1C(=O)O [dicamba, 3,6-dichloro-2-methoxybenzoic acid]
- Plant Injury Rates (%) After Herbicide Spray, MON94100 ([1]; 1× rate): 0.0%
- Plant injury rate ([1]; commercial rate (1X), sprayed at V3, 9 days after treatment, plants comprising Brassica Event MON94100): no injury
- Plant Injury Rates (%) After Herbicide Spray, Control ([2]; 1× rate): 21.3%
- Plant injury rate ([2]; commercial rate (1X), sprayed at V3, 9 days after treatment, control plants): 21.3%

Compound: N#Cc1cc(Br)c(O)c(Br)c1 [bromoxynil, 3,5-dibromo-4-hydroxybenzonitrile]
- Plant Injury Rates (%) After Herbicide Spray, MON94100 ([1]; 1× rate): 80.5%
- Plant Injury Rates (%) After Herbicide Spray, MON94100 ([1]; 2× rate): 90.3%
- Plant Injury Rates (%) After Herbicide Spray, Control ([2]; 1× rate): 83.3%
- Plant Injury Rates (%) After Herbicide Spray, Control ([2]; 2× rate): 90.6%

Compound: CNC.O=C(O)COc1ccc(Cl)cc1Cl [2,4-D amine, dimethylamine salt of 2,4-dichlorophenoxyacetic acid]
- Plant Injury Rates (%) After Herbicide Spray, MON94100 ([1]; 1× rate): 74.5%
- Plant Injury Rates (%) After Herbicide Spray, MON94100 ([1]; 2× rate): 83.5%
- Plant Injury Rates (%) After Herbicide Spray, Control ([2]; 1× rate): 73.0%
- Plant Injury Rates (%) After Herbicide Spray, Control ([2]; 2× rate): 82.0%
